Measured values: patent publication US12391768B2, “Antibodies to ticagrelor and methods of use” (MEDIMMUNE LIMITED, priority 2014, dated 2025)
Changes are numbered by the printed parent chain. Where two headings read alike, the source gives them in different places. Blank lines part the entries; values can stand above or below the molecule they belong to.

Assays:
[1] = target: TICA0049 Fab; test: HTRF competition binding selectivity assay, TICA0049 His-Fab; design: species or system human
Protocol: (§1) Total Binding control wells were set up which contained all of the assay components above except that 5 ul assay buffer was added in place of the test selectivity compound addition. Negative Binding control wells were set up which contained all of the assay components included in the Total Binding control wells except that 5ul assay buffer was added in place of the His-Fab addition. Test compound serial titrations were either ½ or ⅓ depending on the particular experiment and top final assay compound concentrations were optimized on a compound specific basis. The concentration of biotinylated ticagrelor and His-Fab was optimized on a Fab specific basis in separate experiments. For the four Fabs investigated at the end of the lead isolation phase (TICA0010, TICA0049, TICA0053 and TICA0072) the final assay reagent concentrations used are set out in Table 1 below:
(§2) For the two Fabs investigated at the end of the lead optimization phase (TICA0162 and TICA0212) the final assay reagent concentrations used were 5nM biotinylated ticagrelor and 1 nM His Fab in both cases. […] In order to enable subsequent normalization of data to correct for any such vehicle related effects parallel titrations of DMSO alone were included in most experiments in which the final assay DMSO concentrations mirrored those of the test compound serial dilutions. At the end of the set up procedure that assay was incubated for 3hrs at RT before being read on an Envision plate reader using a standard read protocol.
(§3) The negative ratio value used in the calculation of % Delta F was derived from the Negative Binding control wells. % Delta F values were then used to calculate % Specific Binding values according to the equation below: Specific Binding (%)={(Sample Delta F−Negative Binding Delta F)/(Total Binding Delta F−Negative Binding Delta F)}×100
(§4) For standard calculations of % Specific Binding Total Binding Delta F was taken from Total Binding control wells which contained all of the aforementioned components of the assay but without inclusion of any competing test compound.
(§5) In those experiments where DMSO normalization was applied DMSO normalised % Specific Binding was calculated essentially according to the equation above except that in this case Total Binding Delta F was taken from wells containing all of the components in the Total Binding control wells as well as DMSO at a concentration equivalent to that in the relevant sample well.
(§6) In a second series of experiments further selectivity data was generated for TICA0049 and TICA0072 Fabs in which a subset of four of the twelve compounds listed in FIG. 4 were retested along with ticagrelor, TAM and TIM and several adenosine related compounds. Here, in a refinement to the earlier investigations in Table 2, experiments were designed in order to enable normalisation of percent specific binding values to correct for any non-specific vehicle related effects due to DMSO. Example plotted data from this second series of experiments is shown in FIG. 5A-F along with tabulated IC50 values in Table 3.

[2] = target: TICA0072 Fab; test: HTRF competition binding selectivity assay, TICA0072 His-Fab; design: species or system human; conditions: second series (Table 3), DMSO normalised
Protocol: as §1, §2, §3, §4, §5, §6

[3] = target: TICA0010 Fab; test: HTRF competition binding selectivity assay, TICA0010 His-Fab; design: species or system human; conditions: first series (Table 2), not DMSO normalised
Protocol: as §1, §2, §3, §4, §5

[4] = target: TICA0053 Fab; test: HTRF competition binding selectivity assay, TICA0053 His-Fab; design: species or system human; conditions: first series (Table 2), not DMSO normalised
Protocol: as §1, §2, §3, §4, §5

[5] = target: TICA0162 Fab; test: HTRF competition binding selectivity assay, TICA0162 His-Fab; design: species or system human; conditions: Table 7, DMSO normalised; 5 nM biotinylated ticagrelor, 1 nM His Fab; read-out: IC50 (uM) for inhibition of biotinylated ticagrelor binding to TICA0162 Fab
Protocol: as §1
as §2, with “protocol. […]” for “protocol.”
as §5

[6] = human, in vivo; cited from earlier work
[7] = Equilibrium affinity by KinExA3200, ticagrelor; assay type: binding; conditions: modifications in VL CDR3 or VH CDR3 only
Protocol: The affinity of anti-ticagrelor/TAM Fabs generated in Example 5 was determined using the KinExA3200. For the KinExA affinity measurement, beads (600 mg Azlactone beads) were first prepared by reacting them overnight with 1 mg streptavidin in 50 mM NaHCO3. Following blocking with 2 changes of Tris buffer (1M Tris pH 8.7, 10 mg/mL BSA) the streptavidin coated beads were resuspended in a total volume of 8 mL. Beads (1.33 mL, equivalent to 100 mg original dry Azlactone beads) were washed completely with PBS, then allowed to bind to approximately 2.5 μg biotin-ticagrelor in 1 mL PBS for 10 minutes with occasional agitation. […]
All assays were performed at room temperature. […] Bound antibody was then detected using DyLight649 labelled mouse anti-human Heavy and Light chain antibody. Sample volume (300-1300 μL) and injection time (90-120 s) varied with concentration, and 2 -3 reads were varied out per sample. The data were analysed using the KinExA n-Curve Analysis software. Using the Constant Partner analysis the equilibrium KD for the anti-ticagrelor Fab antibodies was determined.
As in the prior Example, Fabs were allowed to equilibrate at room temperature in the presence of either unmodified ticagrelor or TAM at concentrations from 20-fold excess. […] Bound antibody was then detected using a DyLight649 labelled mouse anti-human Heavy and Light chain detection antibody. […]

[8] = target: TICA0159 IgG binding to biotinylated ticagrelor; test: Second generation HTRF epitope competition assay; conditions: for IC50: Fab, 16 nM TICA0159 IgG, 1 nM biotinylated ticagrelor; for Fold Improved: IC50 relative to parent TICA0072 Fab
Protocol: Purified parent TICA0072 (scFv or Fab) was used as a benchmark in all experiments such that improvements in IC50 measured with optimized variants (scFv or Fab) could be expressed as fold improvements over parent TICA0072. Total Binding Control Wells contained all assay components except that 5 ul assay buffer was added in place of the purified scFv or Fab sample. Negative Binding control wells contained all of the components of the Total Binding control wells except that 5 ul of assay buffer was added in place of the TICA0072 IgG.
In both single point HTS and multipoint IC50 profiling versions of the assay. plates were incubated for 3 hrs at RT before being read on an Envision plate reader using a standard HTRF read protocol in which samples are excited at 337 nm and time resolved fluorescence emission is measured at both 620 nm and 665 nM.
Raw 665 nm and 620 nm counts were used to calculate Delta F (%) and % Specific Binding according to the equations described earlier in Assays 1 and 4, respectively. For multipoint secondary profiling experiments IC50 values were determined using Graphpad Prism software using sigmoidal dose response (variable slope) curve fitting (4 parameter logistic equation).
This assay was used only in multipoint IC50 profiling format (as opposed to HTS format) and was performed essentially identically to the method given in Assay 5 (above) for multipoint IC50 profiling of purified Fab variants in the parent TICA0072 IgG based epitope competition assay. The only difference being that TICA0159 IgG was used in place of TICA0072 IgG at the appropriate point in the assay set up but at the same 16nM final assay concentration. In all other respects this assay was performed exactly as described above in the multipoint secondary profiling version for purified Fab.

[9] = second series (Table 3), DMSO normalised
[10] = second series (Table 3), DMSO normalised, read-out: IC50 in competition binding selectivity studies, TICA0049
[11] = first series (Table 2), not DMSO normalised
[12] = first series (Table 2), not DMSO normalised, read-out: IC50 (uM) for inhibition of biotinylated ticagrelor binding to TICA0049 his-Fab

Molecule: Nc1ncnc2c1ncn2[C@@H]1O[C@H](COP(=O)(O)OP(=O)(O)O)[C@@H](O)[C@H]1O [ADP, adenosine diphosphate]
IC50 in competition binding selectivity studies, TICA0049 [1, 9]: trace of inhibition | IC50 in competition binding selectivity studies, TICA0072 [2]: trace of inhibition

Molecule: Nc1ncnc2c1ncn2[C@@H]1O[C@H](COP(=O)(O)OP(=O)(O)OP(=O)(O)O)[C@@H](O)[C@H]1O [ATP, adenosine triphosphate]
IC50 in competition binding selectivity studies, TICA0049 [1, 9]: trace of inhibition | IC50 in competition binding selectivity studies, TICA0072 [2]: trace of inhibition

Molecule: Nc1ncnc2c1ncn2[C@@H]1O[C@H](CO)[C@@H](O)[C@H]1O [Adenosine]
IC50 in competition binding selectivity studies, TICA0049 [1, 9]: trace of inhibition | IC50 in competition binding selectivity studies, TICA0072 [2]: trace of inhibition

Molecule: CCCSc1nc(N)c2nnn(C3CC(OCCO)C(O)C3O)c2n1 (centres unmarked) [TIM]
detectability in circulation [6]: undetectable after 8 hours | fraction of the parent ticagrelor [6]: < 10%

Second part, led by results:

IC50 in competition binding selectivity studies, TICA0049 [1, 9]: weak inhibition | IC50 [1, 10]: 865 µM
Molecule: CCCC(=O)Nc1ncnc2c1ncn2[C@@H]1O[C@@H]2COP(=O)(O)O[C@H]2[C@H]1OC(=O)CCC [Bucladesine]

IC50 (uM) for inhibition of biotinylated ticagrelor binding to TICA00l0 his-Fab [3]: competitive inhibition | IC50 ([3]; read-out: IC50 (uM) for inhibition of biotinylated ticagrelor binding to TICA00l0 his-Fab): 102 µM | IC50 (uM) for inhibition of biotinylated ticagrelor binding to TICA0049 his-Fab [1, 11]: competitive inhibition | IC50 [1, 12]: 208 µM | IC50 in competition binding selectivity studies, TICA0049 [1, 9]: significant inhibition | IC50 [1, 10]: 188 µM | IC50 (uM) for inhibition of biotinylated ticagrelor binding to TICA0053 his-Fab [4]: competitive inhibition | IC50 ([4]; read-out: IC50 (uM) for inhibition of biotinylated ticagrelor binding to TICA0053 his-Fab): 17.5 µM
Molecule: CSCCNc1nc(SCCC(F)(F)F)nc2c1ncn2[C@@H]1O[C@H](COP(=O)(O)OP(=O)(O)C(Cl)(Cl)P(=O)(O)O)[C@@H](O)[C@H]1O [Cangrelor]

IC50 [5]: > 1000 µM
Molecule: NS(=O)(=O)c1cc2c(cc1Cl)NC(C1CC3C=CC1C3)NS2(=O)=O (centres unmarked) [Cyclothiazide]

IC50 (uM) for inhibition of biotinylated ticagrelor binding to TICA0049 his-Fab [1, 11]: partial competitive inhibition | IC50 [1, 12]: 467 µM | IC50 in competition binding selectivity studies, TICA0049 [1, 9]: weak inhibition | IC50 [1, 10]: 902 µM
Molecule: CC(=O)NC[C@H]1CN(c2ccc(N3CCOCC3)c(F)c2)C(=O)O1 [Linezolid]

IC50 [8]: 0.0735 µM | Fold Improved [8]: 23.3
B1: TICA0152: VL CDR3 variant of TICA0072; VH SEQ ID NO:62, VL SEQ ID NO:67 (antibody, listed as Homo sapiens, V domains shown)
VH: QVQLQESGAEVKKPGSSVRVSCKASGGTFDSYSIHWVRQAPGQGLEWMGGIIPAFGTLSSAQDFQARVTISADKSTSTAYMELSGLRSEDTAVYYCARGSHLYDFWSASHPPNDALAIWGQGTLVTVSS
VL: QSVVTQPPSVSAAPGQKVTISCSGSNSDIGNNYVSWYQQLPGTAPKLLIYDNNKRPSGIPDRFSGSKSGTSATLAITGLQAGDEADYYCGTWLYDRAVGLFGGGTKVTVL
fold improvement over TICA0072 [7]: 200 fold

IC50 [8]: 0.0163 µM | Fold Improved [8]: 105.2
B2: TICA0162: VH CDR3 variant of TICA0072; VH SEQ ID NO:52, VL SEQ ID NO:57 (antibody, listed as Homo sapiens, V domains shown)
VH: B1 VH with H101F, L102D, D104Y
VL: B1 VL with L93D, Y94I, D95S, R96L, A97S, V98A
fold improvement over TICA0072 [7]: 50 fold
